The supplement of paper PMC10307832

Key:
Assay in all cases: relative viability (nuclei count vs DMSO), 5 days (fraction); higher = more cells survive
Axitinib + Crizotinib = compound: CNC(=O)c1ccccc1Sc1ccc2c(/C=C/c3ccccn3)n[nH]c2c1 [Axitinib] + C[C@@H](Oc1cc(-c2cnn(C3CCNCC3)c2)cnc1N)c1c(Cl)ccc(F)c1Cl [Crizotinib] (partner 1 µM)
Method in brief: (§1)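 Lung cancer cell lines, seeded in 1536-well plates, were treated the following day by pin tool with a single drug or with five library-drug doses (not always all listed) in √10 steps on top of a fixed anchor-drug dose. Cells were fixed and nuclei stained in one step after 5 days, and nuclei were counted. Relative viability is the nuclei count for treated wells divided by that for vehicle wells, reported as medians of duplicate plates.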

[1] = compound: CC1=CC=C(C=C1)C(=O)CN2C3=C(CCCC3)SC2=N [Pifithrin_alpha] + CC(=O)c1c(C)c2cnc(Nc3ccc(N4CCNCC4)cn3)nc2n(C2CCCC2)c1=O [Palbociclib] (partner 0.5 µM)
Method in brief: as §1

Bemcentinib + Bortezomib = compound: Nc1nc(Nc2ccc3c(c2)CC[C@@H](N2CCCC2)CC3)nn1-c1cc2c(nn1)-c1ccccc1CCC2 [Bemcentinib] + CC(C)C[C@H](NC(=O)[C@H](Cc1ccccc1)NC(=O)c1cnccn1)B(O)O [Bortezomib] (partner 0.002 µM)
Method in brief: as §1

[2] = compound: CC1=CC=C(C=C1)C(=O)CN2C3=C(CCCC3)SC2=N [Pifithrin_alpha] + N=C(N)NC(=N)NCCc1ccccc1 [Phenformin] (partner 250 µM)
Method in brief: as §1

| Cell Line | relative viability (Axitinib + Crizotinib; first compound 0.005 µM) | relative viability (Axitinib + Crizotinib; first compound 0.01581 µM) | relative viability (Axitinib + Crizotinib; first compound 0.05 µM) | relative viability (Axitinib + Crizotinib; first compound 0.1581 µM) | relative viability (Axitinib + Crizotinib; first compound 0.5 µM) | relative viability ([1]; first compound 1 µM) | relative viability ([1]; first compound 3.162 µM) | relative viability ([1]; first compound 10 µM) | relative viability ([1]; first compound 100 µM) | relative viability (Bemcentinib + Bortezomib; first compound 0.04 µM) | relative viability (Bemcentinib + Bortezomib; first compound 0.1265 µM) | relative viability (Bemcentinib + Bortezomib; first compound 0.4 µM) | relative viability (Bemcentinib + Bortezomib; first compound 1.265 µM) | relative viability (Bemcentinib + Bortezomib; first compound 4 µM) | relative viability ([2]; first compound 1 µM) | relative viability ([2]; first compound 3.162 µM) | relative viability ([2]; first compound 100 µM) | relative viability ([1]; first compound 31.62 µM) | relative viability ([2]; first compound 10 µM) | relative viability ([2]; first compound 31.62 µM) |
| --- | --- | --- | --- | --- | --- | --- | --- | --- | --- | --- | --- | --- | --- | --- | --- | --- | --- | --- | --- | --- |
| NCI-H1915 | 0.905 | 0.899 | 0.908 | 0.883 | 0.957 | 0.532 | 0.517 | 0.522 | 0.452 | 0.731 | 1.02 | 1.04 | 0.853 | 1.05 | 0.385 | 0.424 | 0.435 | – | – | – |
| NCI-H2087 | 0.986 | 0.912 | 0.914 | 0.767 | 0.825 | 0.219 | 0.198 | 0.245 | 0.207 | 0.736 | 1.09 | 0.994 | 0.61 | 0.769 | 0.356 | 0.488 | 0.451 | 0.195 | 0.485 | – |
| LCLC-97TM1 | 0.433 | 0.524 | 0.265 | 0.377 | 0.314 | – | 0.293 | 0.204 | 0.225 | 0.571 | 0.794 | 0.703 | 0.602 | 0.473 | 0.46 | 0.479 | 0.475 | – | 0.459 | 0.435 |
| NCI-H1734 | 0.683 | 0.765 | 0.679 | 0.758 | 0.868 | 0.38 | 0.362 | 0.33 | 0.355 | 0.935 | 0.871 | 1.2 | 0.953 | 0.947 | 0.358 | 0.456 | 0.376 | 0.313 | 0.372 | 0.362 |
| EKVX | 1.03 | 0.896 | 0.785 | 0.904 | 0.958 | 0.387 | 0.33 | 0.321 | 0.276 | 1.02 | 1.36 | 1.03 | 0.996 | 0.995 | 0.207 | – | 0.199 | 0.257 | 0.201 | 0.213 |
| 201T | 1.06 | 1.05 | 1.05 | 1.07 | 1.02 | 0.349 | 0.319 | 0.344 | 0.376 | 0.864 | 1.15 | 1.12 | 0.978 | 1.1 | 0.401 | 0.385 | 0.457 | 0.286 | 0.383 | 0.441 |
| NCI-H2085 | 0.799 | 0.902 | 0.794 | 0.718 | 0.874 | 0.499 | 0.432 | 0.449 | 0.444 | 1.01 | 1.11 | 1.03 | 0.997 | 0.973 | – | 0.597 | 0.619 | 0.446 | 0.686 | 0.65 |
